According to ChEMBL document CHEMBL5647694, “Novel orally bioavailable EZH1/2 dual inhibitors with greater antitumor efficacy than an EZH2 selective inhibitor” (Cancer Sci, 2017):

Experiments:
[1] = Toxicity in Crl:CD Sprague-Dawley rat assessed as potassium level in blood at 100 mg/kg, po administered daily for 14 days (reference value: 4.18+/-0.189 mEq/L); assay type: organism-based; details: in vivo, 336 h, time 14 day
[2] = Toxicity in Crl:CD Sprague-Dawley rat assessed as monocyte count in blood at 100 mg/kg, po administered daily for 14 days (reference value: 0.203+/-0.09 10^3/uL); assay type: organism-based; details: in vivo, 336 h, time 14 day
[3] = Toxicity in Crl:CD Sprague-Dawley rat assessed as total cholesterol level in blood at 100 mg/kg, po administered daily for 14 days (reference value: 63.5 +/-[…]); assay type: organism-based; details: in vivo, 336 h, time 14 day
[4] = Toxicity in Crl:CD Sprague-Dawley rat assessed as neutrophil count in blood at 100 mg/kg, po administered daily for 14 days (reference value: 1.73+/-0.276 10^3/uL); assay type: organism-based; details: in vivo, 336 h, time 14 day
[5] = target: Interleukin-1 receptor-associated kinase 1 (Homo sapiens) (UniProt P51617); experiment: Inhibition of N-terminal GST-fused truncated human IRAK1 (194 to 712 residues) expressed in baculovirus expression system using SRPKtide as substrate at 1 uM in presence of ATP by IMAP assay
[6] = Toxicity in Crl:CD Sprague-Dawley rat assessed as hematocrit level in blood at 100 mg/kg, po administered daily for 14 days (reference value: 41.2 +/-[…]); assay type: organism-based; details: in vivo, 336 h, time 14 day
[7] = Toxicity in Crl:CD Sprague-Dawley rat assessed as chloride level in blood at 100 mg/kg, po administered daily for 14 days (reference value: 104 +/-1.5 mEq/L); assay type: organism-based; details: in vivo, 336 h, time 14 day
[8] = Toxicity in Crl:CD Sprague-Dawley rat assessed as atrophy of spleen at 100 mg/kg, po administered daily for 14 days by hematoxylin and eosin staining based analysis; assay type: organism-based; details: in vivo, 336 h, time 14 day
[9] = Toxicity in Crl:CD Sprague-Dawley rat assessed as triglyceride level in blood at 100 mg/kg, po administered daily for 14 days (reference value: 132 +/-30 mg/dL); assay type: organism-based; details: in vivo, 336 h, time 14 day
SU-DHL-6 = experiment: Antitumor activity against human SU-DHL-6 cells assessed as cell growth inhibition treated for 10 to 15 days; assay type: functional; details: time 10-15 day
NCI-H446 = experiment: Antitumor activity against human NCI-H446 cells assessed as cell growth inhibition treated for 10 to 15 days; assay type: functional; details: time 10-15 day
[10] = Antitumor activity against human PCM6 cells assessed as cell growth inhibition treated for 10 to 15 days; assay type: functional; details: time 10-15 day
LS-411N = experiment: Antitumor activity against human LS-411N cells assessed as cell growth inhibition treated for 10 to 15 days; assay type: functional; details: time 10-15 day
TCC-SUP = experiment: Antitumor activity against human TCC-SUP cells assessed as cell growth inhibition treated for 10 to 15 days; assay type: functional; details: time 10-15 day
UACC-812 = experiment: Antitumor activity against human UACC-812 cells assessed as cell growth inhibition treated for 10 to 15 days; assay type: functional; details: time 10-15 day
[11] = Antitumor activity against human SNU-840 cells assessed as cell growth inhibition treated for 10 to 15 days; assay type: functional; details: time 10-15 day
[12] = target: Eukaryotic translation initiation factor 2-alpha kinase 3 (Homo sapiens) (UniProt Q9NZJ5); experiment: Inhibition of N-terminal GST-fused human PEK catalytic domain (536 to 1116 residues) expressed in Escherichia coli expression system using SRPKtide as substrate at 1 uM in presence of ATP by Mobility shift assay
HCC1954 = experiment: Antitumor activity against human HCC1954 cells assessed as cell growth inhibition treated for 10 to 15 days; assay type: functional; details: time 10-15 day
ARH-77 = experiment: Antitumor activity against human ARH-77 cells assessed as cell growth inhibition treated for 10 to 15 days; assay type: functional; details: time 10-15 day
A704 = experiment: Antitumor activity against human A704 cells assessed as cell growth inhibition treated for 10 to 15 days; assay type: functional; details: time 10-15 day
CWR22R = experiment: Antitumor activity against human 22Rv1 cells assessed as cell growth inhibition treated for 10 to 15 days; assay type: functional; details: time 10-15 day
HCC38 = experiment: Antitumor activity against human HCC38 cells assessed as cell growth inhibition treated for 10 to 15 days; assay type: functional; details: time 10-15 day
[13] = target: Histone-lysine N-methyltransferase 2A (Homo sapiens, UniProt Q03164); experiment: Inhibition of human MLL1 using Nucleosomes and [3H]SAM as substrate incubated for 30 mins to 1 hr by HotSpot kinase assay
GA-10 = experiment: Antitumor activity against human GA-10 cells assessed as cell growth inhibition treated for 10 to 15 days; assay type: functional; details: time 10-15 day
HPAC = experiment: Antitumor activity against human HPAC cells assessed as cell growth inhibition treated for 10 to 15 days; assay type: functional; details: time 10-15 day
SNU-398 = experiment: Antitumor activity against human SNU-398 cells assessed as cell growth inhibition treated for 10 to 15 days; assay type: functional; details: time 10-15 day
ATN-1 = experiment: Antitumor activity against human ATN-1 cells assessed as cell growth inhibition treated for 10 to 15 days; assay type: functional; details: time 10-15 day
[14] = target: Protein arginine N-methyltransferase 6 (Homo sapiens, UniProt Q96LA8); experiment: Inhibition of human PRMT6 using Histone H3 and [3H]SAM as substrate incubated for 30 mins to 1 hr by HotSpot kinase assay
Chain of Protein arginine N-methyltransferase 6 (Q96LA8 whole entry): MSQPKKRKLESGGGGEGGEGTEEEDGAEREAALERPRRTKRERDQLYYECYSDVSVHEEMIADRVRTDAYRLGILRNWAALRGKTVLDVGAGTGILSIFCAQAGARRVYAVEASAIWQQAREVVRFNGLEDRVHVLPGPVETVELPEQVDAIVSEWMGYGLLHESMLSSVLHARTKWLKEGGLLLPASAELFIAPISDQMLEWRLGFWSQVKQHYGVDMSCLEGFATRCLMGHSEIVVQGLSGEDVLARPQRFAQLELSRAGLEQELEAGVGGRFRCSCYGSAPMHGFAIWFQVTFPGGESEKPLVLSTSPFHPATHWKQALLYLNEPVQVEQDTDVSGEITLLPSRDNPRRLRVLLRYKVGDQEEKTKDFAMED

A-427 = experiment: Antitumor activity against human A-427 cells assessed as cell growth inhibition treated for 10 to 15 days; assay type: functional; details: time 10-15 day
[15] = target: Histone-lysine N-methyltransferase SETD7 (Homo sapiens, UniProt Q8WTS6); experiment: Inhibition of human SET7/9 using Core Histone and [3H]SAM as substrate incubated for 30 mins to 1 hr by HotSpot kinase assay
Chain of Histone-lysine N-methyltransferase SETD7 (Q8WTS6 whole entry, the tested form may be a part): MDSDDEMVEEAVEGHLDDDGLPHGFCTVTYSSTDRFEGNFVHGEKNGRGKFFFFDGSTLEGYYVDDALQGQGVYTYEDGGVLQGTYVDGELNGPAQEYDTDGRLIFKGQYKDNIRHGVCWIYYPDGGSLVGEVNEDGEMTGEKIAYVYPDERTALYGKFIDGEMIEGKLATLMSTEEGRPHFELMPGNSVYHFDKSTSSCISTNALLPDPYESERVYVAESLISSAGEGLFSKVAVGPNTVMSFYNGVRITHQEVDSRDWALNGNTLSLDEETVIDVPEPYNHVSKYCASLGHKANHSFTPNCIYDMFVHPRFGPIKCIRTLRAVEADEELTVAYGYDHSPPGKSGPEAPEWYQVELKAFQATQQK

[16] = target: MAP kinase-activated protein kinase 2 (Homo sapiens) (UniProt P49137); experiment: Inhibition of N-terminal GST-fused full length human MAPKAPK2 (1 to 400 residues) expressed in baculovirus expression system using GS peptide as substrate at 1 uM in presence of ATP by Mobility shift assay
Chain of MAP kinase-activated protein kinase 2 (Homo sapiens) (P49137 whole entry, looked up, the tested form may be a part): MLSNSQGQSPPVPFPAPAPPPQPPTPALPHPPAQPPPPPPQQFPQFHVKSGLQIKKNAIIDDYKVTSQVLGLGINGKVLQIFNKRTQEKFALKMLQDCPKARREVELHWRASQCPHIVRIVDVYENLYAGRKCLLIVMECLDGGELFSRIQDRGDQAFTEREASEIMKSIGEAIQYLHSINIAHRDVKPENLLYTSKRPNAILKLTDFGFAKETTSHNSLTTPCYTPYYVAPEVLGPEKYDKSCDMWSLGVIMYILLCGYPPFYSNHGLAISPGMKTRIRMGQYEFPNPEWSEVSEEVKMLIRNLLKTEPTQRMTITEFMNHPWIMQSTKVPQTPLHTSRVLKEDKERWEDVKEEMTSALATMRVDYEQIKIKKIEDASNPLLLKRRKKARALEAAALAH

HCC1187 = experiment: Antitumor activity against human HCC1187 cells assessed as cell growth inhibition treated for 10 to 15 days; assay type: functional; details: time 10-15 day
[17] = target: Serine/threonine-protein kinase WNK1 (Homo sapiens) (UniProt Q9H4A3); experiment: Inhibition of N-terminal GST-fused human WNK1 catalytic domain (1 to 491 residues) expressed in baculovirus expression system using SPAKtide as substrate at 1 uM in presence of ATP by Mobility shift assay
Chain of Serine/threonine-protein kinase WNK1 (Homo sapiens) (Q9H4A3 whole entry, looked up, the tested form may be a part): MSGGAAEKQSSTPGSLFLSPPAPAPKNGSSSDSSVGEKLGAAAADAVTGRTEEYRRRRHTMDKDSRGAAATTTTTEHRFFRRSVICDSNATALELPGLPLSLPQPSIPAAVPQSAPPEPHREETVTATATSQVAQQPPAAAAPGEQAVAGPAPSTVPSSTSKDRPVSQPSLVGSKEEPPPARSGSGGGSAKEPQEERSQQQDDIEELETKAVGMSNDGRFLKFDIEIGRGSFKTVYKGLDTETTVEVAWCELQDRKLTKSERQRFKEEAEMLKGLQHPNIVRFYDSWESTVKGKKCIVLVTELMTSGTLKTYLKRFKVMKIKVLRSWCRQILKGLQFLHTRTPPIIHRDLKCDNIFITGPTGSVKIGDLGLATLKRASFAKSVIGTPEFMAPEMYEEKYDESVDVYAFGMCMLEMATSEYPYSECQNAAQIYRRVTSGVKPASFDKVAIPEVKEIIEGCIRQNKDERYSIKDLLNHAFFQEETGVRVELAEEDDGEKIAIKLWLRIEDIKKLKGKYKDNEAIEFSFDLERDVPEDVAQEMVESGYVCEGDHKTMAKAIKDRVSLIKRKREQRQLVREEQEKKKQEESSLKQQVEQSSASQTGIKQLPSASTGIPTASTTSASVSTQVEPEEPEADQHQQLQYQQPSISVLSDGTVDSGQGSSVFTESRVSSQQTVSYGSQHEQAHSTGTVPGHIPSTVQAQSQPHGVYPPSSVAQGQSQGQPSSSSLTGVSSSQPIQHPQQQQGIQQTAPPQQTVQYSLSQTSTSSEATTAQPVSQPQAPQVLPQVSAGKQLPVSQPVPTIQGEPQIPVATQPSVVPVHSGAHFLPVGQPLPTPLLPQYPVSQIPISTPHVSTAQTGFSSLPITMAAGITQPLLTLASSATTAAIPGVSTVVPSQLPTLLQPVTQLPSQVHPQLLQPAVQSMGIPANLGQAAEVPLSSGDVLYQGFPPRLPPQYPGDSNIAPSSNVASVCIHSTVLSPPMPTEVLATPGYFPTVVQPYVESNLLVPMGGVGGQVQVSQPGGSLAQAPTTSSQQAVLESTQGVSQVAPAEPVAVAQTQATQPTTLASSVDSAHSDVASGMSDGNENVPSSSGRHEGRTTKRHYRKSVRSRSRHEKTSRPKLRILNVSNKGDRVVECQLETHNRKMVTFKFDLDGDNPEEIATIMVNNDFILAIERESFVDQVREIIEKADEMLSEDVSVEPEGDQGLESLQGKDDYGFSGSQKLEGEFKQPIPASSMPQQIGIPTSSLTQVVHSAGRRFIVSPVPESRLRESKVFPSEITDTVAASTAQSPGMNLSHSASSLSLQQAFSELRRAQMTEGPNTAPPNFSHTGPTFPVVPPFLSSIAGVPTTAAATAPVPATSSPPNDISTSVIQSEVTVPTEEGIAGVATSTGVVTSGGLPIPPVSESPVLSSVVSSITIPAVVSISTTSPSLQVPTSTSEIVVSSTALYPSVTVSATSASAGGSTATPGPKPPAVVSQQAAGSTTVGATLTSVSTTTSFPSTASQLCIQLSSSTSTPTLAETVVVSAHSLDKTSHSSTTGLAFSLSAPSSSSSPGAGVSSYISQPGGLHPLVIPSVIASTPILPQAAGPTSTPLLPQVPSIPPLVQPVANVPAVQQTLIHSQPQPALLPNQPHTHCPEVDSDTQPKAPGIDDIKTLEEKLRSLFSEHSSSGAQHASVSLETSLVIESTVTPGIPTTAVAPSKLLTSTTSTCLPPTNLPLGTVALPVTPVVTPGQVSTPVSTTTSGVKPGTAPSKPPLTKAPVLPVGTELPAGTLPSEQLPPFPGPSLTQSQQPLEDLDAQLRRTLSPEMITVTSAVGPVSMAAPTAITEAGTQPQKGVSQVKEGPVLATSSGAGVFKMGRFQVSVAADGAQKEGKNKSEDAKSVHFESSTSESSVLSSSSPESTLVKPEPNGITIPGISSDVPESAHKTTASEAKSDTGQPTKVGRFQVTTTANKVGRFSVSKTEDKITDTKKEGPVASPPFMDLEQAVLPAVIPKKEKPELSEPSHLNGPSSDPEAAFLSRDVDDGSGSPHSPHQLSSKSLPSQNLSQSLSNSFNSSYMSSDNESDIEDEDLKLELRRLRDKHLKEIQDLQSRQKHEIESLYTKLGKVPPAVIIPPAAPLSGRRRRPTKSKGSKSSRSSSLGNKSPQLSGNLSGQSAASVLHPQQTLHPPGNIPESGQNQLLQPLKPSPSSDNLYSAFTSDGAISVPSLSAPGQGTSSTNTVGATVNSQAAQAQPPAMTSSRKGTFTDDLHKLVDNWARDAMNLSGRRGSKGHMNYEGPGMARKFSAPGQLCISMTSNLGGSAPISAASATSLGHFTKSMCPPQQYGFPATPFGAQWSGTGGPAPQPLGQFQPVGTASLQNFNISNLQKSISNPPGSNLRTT

NCI-H929 = experiment: Antitumor activity against human NCI-H929 cells assessed as cell growth inhibition treated for 10 to 15 days; assay type: functional; details: time 10-15 day
NCI-H1694 = experiment: Antitumor activity against human NCI-H1694 cells assessed as cell growth inhibition treated for 10 to 15 days; assay type: functional; details: time 10-15 day
LS180 = experiment: Antitumor activity against human LS180 cells assessed as cell growth inhibition treated for 10 to 15 days; assay type: functional; details: time 10-15 day
[18] = target: Serine/threonine-protein kinase D2 (Homo sapiens) (UniProt Q9BZL6); experiment: Inhibition of N-terminal GST-fused full length human PKD2 (1 to 878 residues) expressed in baculovirus expression system using GS peptide as substrate at 1 uM in presence of ATP by Mobility shift assay
Chain of Serine/threonine-protein kinase D2 (Homo sapiens) (Q9BZL6 whole entry, the tested form may be a part): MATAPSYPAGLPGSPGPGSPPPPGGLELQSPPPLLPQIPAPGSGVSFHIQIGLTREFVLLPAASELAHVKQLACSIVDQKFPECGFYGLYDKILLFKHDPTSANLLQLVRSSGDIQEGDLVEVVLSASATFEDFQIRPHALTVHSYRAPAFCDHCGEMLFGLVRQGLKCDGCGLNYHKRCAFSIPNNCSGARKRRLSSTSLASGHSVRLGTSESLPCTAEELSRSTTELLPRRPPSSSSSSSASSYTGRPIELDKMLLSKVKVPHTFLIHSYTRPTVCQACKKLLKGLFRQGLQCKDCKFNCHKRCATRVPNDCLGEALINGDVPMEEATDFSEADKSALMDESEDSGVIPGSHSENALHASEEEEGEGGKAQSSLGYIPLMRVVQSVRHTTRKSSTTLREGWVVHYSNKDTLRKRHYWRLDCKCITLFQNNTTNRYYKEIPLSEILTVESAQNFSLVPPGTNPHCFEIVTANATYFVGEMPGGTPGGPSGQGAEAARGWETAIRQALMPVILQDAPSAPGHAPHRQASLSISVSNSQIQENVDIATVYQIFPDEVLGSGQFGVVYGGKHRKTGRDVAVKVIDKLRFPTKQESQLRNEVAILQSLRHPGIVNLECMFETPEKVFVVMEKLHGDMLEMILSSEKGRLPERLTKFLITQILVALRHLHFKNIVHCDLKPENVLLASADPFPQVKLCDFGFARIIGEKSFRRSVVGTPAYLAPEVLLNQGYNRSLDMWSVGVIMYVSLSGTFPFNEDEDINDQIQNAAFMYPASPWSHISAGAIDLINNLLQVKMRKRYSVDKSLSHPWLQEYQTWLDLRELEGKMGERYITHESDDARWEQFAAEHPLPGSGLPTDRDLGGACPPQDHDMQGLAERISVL

LS-513 = experiment: Antitumor activity against human LS-513 cells assessed as cell growth inhibition treated for 10 to 15 days; assay type: functional; details: time 10-15 day
[19] = Antitumor activity against human COV362 cells assessed as cell growth inhibition treated for 10 to 15 days; assay type: functional; details: time 10-15 day

Cc1cc(C)c(CNC(=O)c2cc(Br)c3c(c2C)O[C@@](C)([C@H]2CC[C@H](N(C)C)CC2)O3)c(=O)[nH]1
Activity [1]: 4.2 mEq/L | Activity [2]: 0.105 10^3 /uL | Activity [3]: 64 mg/dL | Activity [4]: 0.583 10^3 /uL | inhibition [5]: -4.5% | Activity [6]: 40.1% | Activity [7]: 105 mEq/L | Activity [8]: Toxic | Activity [9]: 90 mg/dL

Cc1cc(C)c(CNC(=O)c2cc(Cl)c3c(c2C)O[C@@](C)([C@H]2CC[C@H](N(C)C)CC2)O3)c(=O)[nH]1 [VALEMETOSTAT]
GI50 (SU-DHL-6): 0.68 nM | GI50 (NCI-H446): 124 nM | GI50 [10]: 32.5 nM | GI50 (LS-411N): > 1000 nM | GI50 (TCC-SUP): > 1000 nM | GI50 (UACC-812): > 1000 nM | GI50 [11]: > 1000 nM | inhibition [12]: -9.8% | GI50 (HCC1954): > 1000 nM | GI50 (ARH-77): > 1000 nM | GI50 (A704): > 1000 nM | GI50 (CWR22R): 37.7 nM | GI50 (HCC38): > 1000 nM | IC50 [13]: 100 µM | GI50 (GA-10): 14.9 nM | GI50 (HPAC): > 1000 nM | GI50 (SNU-398): 2.07 nM | GI50 (ATN-1): 43.8 nM | IC50 [14]: 100 µM | GI50 (A-427): > 1000 nM | IC50 [15]: 100 µM | inhibition [16]: 6.7% | GI50 (HCC1187): > 1000 nM | inhibition [17]: 3.4% | GI50 (NCI-H929): > 1000 nM | GI50 (NCI-H1694): > 1000 nM | GI50 (LS180): 95.5 nM | inhibition [18]: -4.7% | GI50 (LS-513): > 1000 nM | GI50 [19]: > 1000 nM
